Paper PMC3096782 (Journal of medicinal chemistry, 2011)
“Also recorded” adds a separate entry of the source.

Assays:
human NK1 receptor = human NK1 receptor (Homo sapiens, UniProt P25103); format: cell-based; conditions: shift of the dose-response curve of SP, aequorin luminescence, CHO-NK1 cells
[1] = acute pain models; chronic trials; cited from earlier work
[2] = cited from earlier work

Sequence of human NK1 receptor (P25103 whole entry): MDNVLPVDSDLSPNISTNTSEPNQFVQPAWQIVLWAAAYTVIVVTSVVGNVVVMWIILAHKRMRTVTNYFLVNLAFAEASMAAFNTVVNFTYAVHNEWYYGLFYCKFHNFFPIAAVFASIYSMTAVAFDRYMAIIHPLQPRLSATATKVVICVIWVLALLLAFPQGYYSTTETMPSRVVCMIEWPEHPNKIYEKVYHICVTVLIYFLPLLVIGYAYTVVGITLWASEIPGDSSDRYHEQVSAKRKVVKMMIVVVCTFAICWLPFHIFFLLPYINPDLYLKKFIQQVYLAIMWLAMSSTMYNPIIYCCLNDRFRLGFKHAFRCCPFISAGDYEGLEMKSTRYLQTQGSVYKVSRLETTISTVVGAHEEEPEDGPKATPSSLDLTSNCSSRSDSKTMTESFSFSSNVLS

Row | Compound | NK1R antagonism (in words) (human NK1 receptor) | Antinociception and opioid-induced tolerance (in words) [1] | Attenuation of neuropathic pain (in words) [2]
1 | CC(=O)N[C@H]1Cc2c([nH]c3ccccc23)CN(CC(=O)N(C)Cc2cc(C(F)(F)F)cc(C(F)(F)F)c2)C1=O [28a] | did not show any antagonist properties | – | –
2 | CC(=O)N1Cc2[nH]c3ccccc3c2C[C@H]1C(=O)N(C)Cc1cc(C(F)(F)F)cc(C(F)(F)F)c1 [32a] | did not show any antagonist properties | – | –
3 | CC(=O)N[C@H]1Cc2ccccc2CN(CC(=O)NCc2cc(C(F)(F)F)cc(C(F)(F)F)c2)C1=O [compound 19, Ac-(S)-Aba-Gly-NH-3′,5′-(CF3)2-Bn] | able to counteract the effect of SP; also recorded: moderate | – | –
4 | CC(=O)N[C@H]1Cc2ccccc2CN(CC(=O)N(C)Cc2cc(C(F)(F)F)cc(C(F)(F)F)c2)C1=O [compound 20, Ac-(S)-Aba-Gly-NMe-3′,5′-(CF3)2-Bn] | able to counteract the effect of SP and good | – | –
5 | CC(=O)N1Cc2ccccc2C[C@H]1C(=O)NCc1cc(C(F)(F)F)cc(C(F)(F)F)c1 [compound 22] | lack of antagonism | – | –
6 | CC(=O)N1Cc2ccccc2C[C@H]1C(=O)N(C)Cc1cc(C(F)(F)F)cc(C(F)(F)F)c1 [compound 23, Ac-Tic-NMe-3′,5′-(CF3)2-Bn] | able to counteract the effect of SP and good | – | –
7 | CC(=O)N[C@H]1Cc2c([nH]c3ccccc23)CN(Cc2cc(C(F)(F)F)cc(C(F)(F)F)c2)C1=O [compound 30] | did not show any antagonist properties | – | –
8 | H-Tyr-D-Ala-Gly-Phe-Met-Pro-Leu-Trp-NH-3′,5′-Bn(CF3)2 [compound 6] | – | enhanced antinociception in acute pain models and prevention of opioid-induced tolerance in chronic trials | potently attenuate neuropathic pain without producing opioid-induced tolerance
9 | H-Tyr-D-Ala-Gly-Phe-Met-Pro-Leu-Trp-O-3′,5′-Bn(CF3)2 [compound 7] | – | enhanced antinociception in acute pain models and prevention of opioid-induced tolerance in chronic trials | potently attenuate neuropathic pain without producing opioid-induced tolerance
